Experimental data published in publication PMC8347595, “N-Skatyltryptamines—Dual 5-HT6R/D2R Ligands with Antipsychotic and Procognitive Potential” (Molecules, 2021).
Like-named read-outs stand apart in the source and are kept apart here.

What was measured:
5-HT7R = 5-HT7R (Homo sapiens, UniProt P34969); assay: Radioligand binding assay, [3H]-5-CT displacement
Male CD1 mice = assay: Spontaneous locomotor activity of mice; format: in vivo; details: i.p.; for Ambulation Scores ± SEM: 60 min, n = 5; for effect on spontaneous locomotor activity in words: all tested doses
Protocol: Mice were placed separately into activity cages for an acclimatization period of 30 min, then they were injected i.p. with compound 15 (0.5, 1, and 3 mg/kg) or compound 18 (0.05, 0.1, 0.5, 1, and 3 mg/kg, respectively. After a further 30 min, they were injected with saline (10 mL/kg). From this point on, the ambulation scores were measured for 60 min. The data are presented as mean ± SEM, n = 5 mice per group. Data were analyzed with one-way ANOVA and Dunnett’s post-hoc. 15: F(3,16) = 1.225, p = 0.333; 18: F(5,24) = 0.791, p = 0.567.
Animals. Male CD1 mice (Charles River, Germany) weighing 20–25 g at the time of arrival were used in behavioral experiments. Animals were kept under standard laboratory conditions (12:12 light: dark cycle, 22 ± 2 °C) with free access to food and water. Animal welfare has been regularly controlled by a veterinarian and animal welfare committee. After two weeks of acclimatization and handling, the experiments began. Experimental groups consisted of four to 10 animals, depending on the procedure. Drugs were administered intraperitoneally (i.p.) at a volume of 10 mL/kg. Experimental assessments were performed by an observer who was blinded to the treatment conditions. All procedures were conducted in accordance with the European Communities Council Directive of 22 September 2010 (2010/63/EU) and Polish legislation acts concerning animal experimentation and were approved by the II Local Ethics Committee by the Maj Institute of Pharmacology, Polish Academy of Sciences in Krakow (272/2019).
Drugs. MK-801 was purchased from Tocris Bioscience, Bristol, UK. MK-801 was dissolved in 0.9% NaCl. Compounds 15 and 18 were dissolved in 0.9% NaCl. All compounds were administered intraperitoneally (i.p.) in a volume of 10 mL/kg. Vehicle-treated animals received appropriate solvents. Vehicle was administered to animals in any case when drug administration was omitted (e.g., control or MK-801-treated groups).
The locomotor activity was recorded individually for each animal in the OPTO-M3 locomotor activity cages described above. Each cage was surrounded with an array of photocell beams. […] Mice were placed separately into activity cages for an acclimatization period of 30 min, then were injected i.p. with compound 15 (0.5, 1, 3 mg/kg) compound 18 (0.05, 0.1, 0.5, 1, 3 mg/kg. After a further 30 min, they were injected with saline (10 mL/kg). From this point on, the ambulation scores were measured for 60 min.

5-HT2AR = 5-HT2AR (Homo sapiens, UniProt P28223); assay: Radioligand binding assay, [3H]-ketanserin displacement; parameters: host or cells: CHO-K1; membrane preparation; details: Table 1
Sequence of 5-HT2AR (P28223 whole entry): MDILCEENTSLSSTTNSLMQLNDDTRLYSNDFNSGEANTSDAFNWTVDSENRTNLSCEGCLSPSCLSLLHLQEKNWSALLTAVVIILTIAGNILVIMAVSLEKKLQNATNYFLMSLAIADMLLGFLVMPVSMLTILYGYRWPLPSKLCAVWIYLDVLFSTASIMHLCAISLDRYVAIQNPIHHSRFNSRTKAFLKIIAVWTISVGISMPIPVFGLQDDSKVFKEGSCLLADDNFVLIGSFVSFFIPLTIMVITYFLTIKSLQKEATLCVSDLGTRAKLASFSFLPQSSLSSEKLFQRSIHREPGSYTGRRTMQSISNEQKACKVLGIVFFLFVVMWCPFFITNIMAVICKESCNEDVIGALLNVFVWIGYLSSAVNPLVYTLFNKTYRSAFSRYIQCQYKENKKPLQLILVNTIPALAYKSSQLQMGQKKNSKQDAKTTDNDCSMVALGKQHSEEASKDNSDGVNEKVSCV

D2R = D2R (Homo sapiens, UniProt P14416); assay: Radioligand binding assay, [3H]-raclopride displacement
Sequence of D2R (P14416 whole entry): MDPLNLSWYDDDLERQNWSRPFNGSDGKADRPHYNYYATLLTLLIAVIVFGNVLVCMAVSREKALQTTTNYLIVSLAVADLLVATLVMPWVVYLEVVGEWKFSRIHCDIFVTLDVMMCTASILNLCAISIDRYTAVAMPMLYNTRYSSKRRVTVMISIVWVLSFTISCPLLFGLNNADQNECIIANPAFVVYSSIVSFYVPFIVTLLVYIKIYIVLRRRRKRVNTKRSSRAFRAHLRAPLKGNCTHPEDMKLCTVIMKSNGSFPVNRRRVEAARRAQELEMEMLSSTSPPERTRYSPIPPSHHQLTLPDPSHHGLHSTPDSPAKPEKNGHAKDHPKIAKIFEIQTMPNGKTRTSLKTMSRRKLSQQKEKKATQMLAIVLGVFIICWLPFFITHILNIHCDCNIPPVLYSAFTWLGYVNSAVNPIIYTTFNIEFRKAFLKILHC

[1] = Metabolic stability, incubation with mouse liver microsomes; format: in vitro ADME; details: MLMs, 50 µM, 2 h
Protocol: The murine liver microsomes (MLMs) were purchased from Sigma-Aldrich (St. Louis, MO, USA). To determine metabolic pathways, the tested compounds (50 µM) were incubated with 100 mM Tris-HCl buffer at 37 °C with MLMs (1 mg/mL) and NADPH Regeneration System for 2 h. Reactions were quenched with cold, pure methanol and mixtures were centrifuged 14,000 g for 15 min. The supernatants were analyzed using LCMS. The additional MS ion fragmentation of the product and the substrate were performed to determine the most probable structure of the metabolite.

5-HT1AR = biological target: T1, 5-HT1AR (Homo sapiens, UniProt P08908); assay: Radioligand binding assay, [3H]-8-OH-DPAT displacement
T1 sequence (P08908 1-422): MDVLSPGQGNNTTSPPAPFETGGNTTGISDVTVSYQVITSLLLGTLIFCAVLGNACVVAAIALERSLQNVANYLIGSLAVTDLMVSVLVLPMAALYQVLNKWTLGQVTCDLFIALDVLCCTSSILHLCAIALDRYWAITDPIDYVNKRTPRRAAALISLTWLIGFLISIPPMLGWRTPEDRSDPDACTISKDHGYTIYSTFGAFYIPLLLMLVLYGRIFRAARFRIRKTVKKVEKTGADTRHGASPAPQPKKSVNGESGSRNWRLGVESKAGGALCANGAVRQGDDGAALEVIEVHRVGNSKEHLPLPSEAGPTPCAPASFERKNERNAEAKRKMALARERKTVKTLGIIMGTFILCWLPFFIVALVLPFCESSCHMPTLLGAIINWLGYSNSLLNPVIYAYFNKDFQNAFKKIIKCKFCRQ

CYP3A4 = biological target: T2, CYP3A4 (Homo sapiens, UniProt P08684); assay: CYP3A4 P450-Glo luminescent assay; format: in vitro ADME; details: compared to ketoconazole; 0.01 to 25 µM
T2 construct: purchased Promega (Madison, WI, USA)
T2 sequence (P08684 whole entry): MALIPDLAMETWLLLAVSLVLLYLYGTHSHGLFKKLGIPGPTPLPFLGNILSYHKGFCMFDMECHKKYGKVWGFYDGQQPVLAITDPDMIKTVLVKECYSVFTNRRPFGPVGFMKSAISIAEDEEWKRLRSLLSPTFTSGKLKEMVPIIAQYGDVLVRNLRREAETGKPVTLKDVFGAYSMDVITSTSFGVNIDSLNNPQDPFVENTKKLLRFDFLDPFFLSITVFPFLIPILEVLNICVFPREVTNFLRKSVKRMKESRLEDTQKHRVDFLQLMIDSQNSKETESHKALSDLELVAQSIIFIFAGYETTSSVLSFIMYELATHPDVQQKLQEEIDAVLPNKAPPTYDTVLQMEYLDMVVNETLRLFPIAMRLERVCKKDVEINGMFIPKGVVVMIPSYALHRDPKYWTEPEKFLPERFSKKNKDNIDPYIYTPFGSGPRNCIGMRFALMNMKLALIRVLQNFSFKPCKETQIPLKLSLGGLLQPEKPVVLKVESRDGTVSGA
Protocol: The experiments were provided using commercially available luminescent CYP3A4 P450-Glo™ and CYP2D6 P450-Glo™ tests purchased from Promega (Madison, WI, USA). The enzymatic reactions were conducted in polystyrene, flat-bottom Nunc™ MicroWell™ 96-well microplates (Thermo Scientific, Waltham, MA, USA). The assays were carried out according to the procedures provided by the manufacturer, as described previously. Compounds were tested in triplicate at the final concentrations in a range from 0.01 to 25 µM for both isoforms of CYP450. The references of CYP3A4 and CYP2D6 inhibitors (ketoconazole and quinidine, respectively) were tested in a range from 0.001 to 10 µM. Tested compounds were incubated in 100 mM Tris-HCl buffer separately with CYP3A4 and CYP2D6 membranes and the NADPH Regeneration System for 30 min at room temperature in triplicate. The bioluminescent signal was measured after the addition of the Luciferin Detection Reagent by using a microplate reader EnSpire PerkinElmer (Waltham, MA, USA). Both reagents (NADPH Regeneration System and Luciferin Detection Reagent) were purchased from Promega (Madison, WI, USA).

HepG2 cell line = assay: Hepatotoxicity assay, HepG2 viability; format: cell-based; details: 1 μM, 72 h
Protocol: To estimate the hepatotoxicity of compounds, the hepatoma HepG2 (ATCC® HB-8065TM) cell line was used according to previously described protocols. The CellTiter 96® AQueous Non-Radioactive Cell Proliferation Assay was obtained from Promega (Madison, WI, USA). The compounds were tested in quadruplicate at four concentrations (1–100 µM) for 72 h.

Sequence of 5-HT7R (P34969 1-432): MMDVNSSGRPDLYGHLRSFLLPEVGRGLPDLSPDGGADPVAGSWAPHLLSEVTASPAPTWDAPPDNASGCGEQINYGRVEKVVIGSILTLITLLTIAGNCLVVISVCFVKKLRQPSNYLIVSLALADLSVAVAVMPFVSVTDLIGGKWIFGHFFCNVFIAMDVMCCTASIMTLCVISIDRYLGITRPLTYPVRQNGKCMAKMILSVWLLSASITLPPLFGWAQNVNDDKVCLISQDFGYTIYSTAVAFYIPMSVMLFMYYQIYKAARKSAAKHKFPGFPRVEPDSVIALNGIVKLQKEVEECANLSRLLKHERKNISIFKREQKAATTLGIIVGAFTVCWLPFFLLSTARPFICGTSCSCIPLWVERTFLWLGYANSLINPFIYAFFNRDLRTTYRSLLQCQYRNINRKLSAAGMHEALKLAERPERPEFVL

Row | Structure (SMILES) | Ki (5-HT7R) | Ambulation Scores ± SEM (Male CD1 mice; 0.5 mg/kg) | Ambulation Scores ± SEM (Male CD1 mice; 1 mg/kg) | Ambulation Scores ± SEM (Male CD1 mice; 3 mg/kg) | effect on spontaneous locomotor activity in words (Male CD1 mice) | Ki (5-HT2AR; read-out: pKi 5-HT2A (converted)) | Ki (D2R; Ki D2, Figure 8) | Ki (D2R; pKi D2, Table 1) | Metabolic Pathway, metabolite M1 [1] | Metabolic Pathway, metabolite M2 [1] | Ki (5-HT1AR; pKi 5-HT1A, Table 1) | effect on CYP3A4 activity (CYP3A4) | effect on HepG2 proliferation in words (HepG2 cell line) | Ambulation Scores ± SEM (Male CD1 mice; 0.05 mg/kg) | Ambulation Scores ± SEM (Male CD1 mice; 0.1 mg/kg) | Ki (5-HT2AR; pKi 5-HT2A) | Ki (5-HT1AR)
1 | Brc1ccc2c(CNCCc3c[nH]c4ccccc34)c[nH]c2c1 [Compound 15] | 4680 nM | 134.9 ± 11.13 | 124.7 ± 21.75 | 91.8 ± 24.61 | did not affect the locomotor activity of mice | 4070 nM | 290 nM | 288 nM | hydroxylation hydroxylation | hydroxylation hydroxylation | 977 nM | only slightly inhibited | a proliferative effect was observed, but it was not statistically significant |  |  |  | 
2 | Brc1cccc2c(CNCCc3c[nH]c4ccccc34)c[nH]c12 [Compound 18] | 1320 nM | 116.7 ± 13.23 | 85.31 ± 15.86 | 87.79 ± 20.89 | did not influence the spontaneous locomotor activity of mice |  | 55 nM | 55 nM | hydroxylation hydroxylation | hydroxylation hydroxylation |  | only slightly inhibited | a proliferative effect was observed, but it was not statistically significant | 113.6 ± 34.00 | 131.8 ± 19.50 | 3980 nM | 302 nM
